Measured values as given in publication PMC6277577, “In Salmonella enterica, OatA (Formerly YjgM) Uses O-Acetyl-Serine and Acetyl-CoA to Synthesize N,O-Diacetylserine, Which Upregulates Cysteine Biosynthesis” (Frontiers in Microbiology, 2018).

T1: OatA (formerly YjgM) (Salmonella enterica, UniProt Q08021)
T1 sequence (Q08021 1-167): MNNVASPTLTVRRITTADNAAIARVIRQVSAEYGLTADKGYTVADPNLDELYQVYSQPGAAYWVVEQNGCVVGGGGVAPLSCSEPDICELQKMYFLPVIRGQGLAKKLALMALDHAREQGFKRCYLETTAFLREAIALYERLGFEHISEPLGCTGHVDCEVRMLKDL


Assays:
OatA (formerly YjgM) = target: T1, OatA (formerly YjgM); test: isothermal titration calorimetry with purified OatA; format: binding
purified protein = substrate: CC(=O)OC[C@H](N)C(=O)O; test: purified protein; format: biochemical, Salmonella enterica; conditions: acetyl-CoA positively cooperative (h = […]); no OAS binding seen by ITC under conditions tested, suggesting AcCoA binds before OAS

Molecule	Kd (OatA (formerly YjgM)) [µM]	Km (purified protein) [µM]
CC(=O)SCCNC(=O)CCNC(=O)[C@H](O)C(C)(C)COP(=O)(O)OP(=O)(O)OC[C@H]1O[C@@H](n2cnc3c(N)ncnc32)[C@H](O)[C@@H]1OP(=O)(O)O [acetyl-CoA]	~22	–
OatA (formerly YjgM) (Salmonella enterica subsp. enterica serovar Typhimurium str. LT2) (protein) MNNVASPTLTVRRITTADNAAIARVIRQVSAEYGLTADKGYTVADPNLDELYQVYSQPGAAYWVVEQNGCVVGGGGVAPLSCSEPDICELQKMYFLPVIRGQGLAKKLALMALDHAREQGFKRCYLETTAFLREAIALYERLGFEHISEPLGCTGHVDCEVRMLKDL	–	740
